Structures can show the parent of a compound that is named as a salt.
Test: in vitro
Details: rat, gh3-tre-luc cells, AC50 (uM) modified / 1000

Structure (SMILES) | CC50 at 24 h [µM]
CC(=O)c1ccc(C(C)=O)cc1 [1,1-(1,4-Phenylene)bis-ethanone] | > 90
Fc1ccc(Oc2ccnc3cc(Cl)cc(Cl)c23)cc1 [Quinoxyfen] | 74.9
NS(=O)(=O)c1cc2c(cc1Cl)NC(C1CC3C=CC1C3)NS2(=O)=O (stereo not drawn) [Cyclothiazide] | > 50
CCCN(CCC)c1c([N+](=O)[O-])cc(C(F)(F)F)c(N)c1[N+](=O)[O-] [Prodiamine] | 14.5
CC(C)=CC1C(C(=O)OCc2cccc(Oc3ccccc3)c2)C1(C)C (stereo not drawn) [Phenothrin] | > 90
CN(C)C(=O)COC(=O)Cc1ccc(OC(=O)c2ccc(NC(=N)N)cc2)cc1 [Camostat mesylate] | > 50
CCC(=O)NCC[C@@H]1CCc2ccc3c(c21)CCO3 [Ramelteon] | > 50
CC(=O)OCC=C(C)C [3,3-Dimethylallyl acetate] | > 60
CCCCCCCCCCCCCCN(CCO)CCO [2,2'-(Tetradecylimino)diethanol] | 23.3
NP(N)(=O)NC(=O)c1ccc(F)cc1 [Flurofamide] | > 50
CCC1(CO)COCOC1 [(5-Ethyl-1,3-dioxan-5-yl)methanol] | > 90
CN1CCN(CCC(=O)N2c3ccccc3Sc3ccc(C(F)(F)F)cc32)CC1 [Ftormetazine] | 25.8
CC(C)(C)N [tert-Butylamine] | > 90
Cc1nc(N)nc(N)n1 [6-Methyl-1,3,5-triazine-2,4-diamine] | > 90
Cc1cc(O)cc(C)c1Cl [4-Chloro-3,5-dimethylphenol] | > 90
CNC[C@H](O)c1ccc(O)c(O)c1 [Epinephrine bitartrate] | > 90
O=C(O)c1cccc(Cl)c1Cl [2,3-Dichlorobenzoic acid] | > 90
COCCc1ccc(OCC(O)CNC(C)C)cc1 (stereo not drawn) [Metoprolol tartrate] | > 50
CC(S)C(C)S (stereo not drawn) [2,3-Butanedithiol] | > 100
CC(C)(Oc1ccc(C2CCCc3ccccc32)cc1)C(=O)O (stereo not drawn) [Nafenopin] | > 50
N#CC(Cl)Cl [Dichloroacetonitrile] | 72.9
CC(C)(C)C(O)/C=C/c1ccc2c(c1)OCO2 (stereo not drawn) [Stiripentol] | > 50
O=C(Cn1c(=O)sc2ccc(Cl)cc21)N1CCN(CCO)CC1 [Tiaramide hydrochloride] | > 50
C=C(C)C(=O)NCCCN(C)C [N-[3-(Dimethylamino)propyl]methacrylamide] | > 90
CC(=O)OC(C)OC(=O)C(C)c1ccc(-c2ccccc2)c(F)c1 (stereo not drawn) [Flurbiprofen axetil] | > 50

Structure (SMILES) | CC50 at 24 h [µM]
CN[C@@H]1[C@@H](O)[C@@H](O[C@@H]2[C@@H](O)[C@H](O[C@H]3OC(CN)=CC[C@H]3N)[C@@H](N)C[C@H]2N)OC[C@]1(C)O [Sisomicin sulfate] | > 20
O=C=Nc1ccc(Cl)cc1 [4-Chlorophenyl isocyanate] | > 90
O=S(=O)(Oc1ccc(Cl)cc1Cl)c1ccccc1 [2,4-Dichlorophenyl benzenesulfonate] | > 90
C=C[C@]1(C)C[C@@H](OC(=O)CSCCN(CC)CC)[C@]2(C)[C@H](C)CC[C@]3(CCC(=O)[C@H]32)[C@@H](C)[C@@H]1O [Tiamulin] | 14.1
CC(C)Cc1nccs1 [2-(2-Methylpropyl)thiazole] | > 90
O=C1OC(=O)C2CCCCC12 (stereo not drawn) [Hexahydrophthalic anhydride] | > 90
C=CCOCC(CC)(CO)COCC=C [2,2-Bis[(prop-2-en-1-yloxy)methyl]butan-1-ol] | > 90
Cc1cc(C)c(N)cc1C [2,4,5-Trimethylaniline] | > 90
CN(C)CCC#N [3-Dimethylaminopropionitrile] | > 90
CC(C)=CCC/C(C)=C/C=O [3,7-Dimethyl-2,6-octadienal] | > 90
CCC(C)OC(=O)c1ccc(O)cc1 (stereo not drawn) [sec-Butylparaben] | > 90
O=C1OC(=O)C2C3C=CC(C3)C12 (stereo not drawn) [2-Norbornene-5,6-dicarboxylic anhydride] | > 90
O=c1[nH]c(=O)n([C@H]2C[C@H](O)[C@@H](CO)O2)cc1/C=C/Br [Brivudine] | > 50
CC[N+](CC)(CC)CCC(O)(c1ccccc1)C1CCCCC1 (stereo not drawn) [Tridihexethyl chloride] | > 20
O=C(NCCNCC(O)COc1ccc(O)cc1)N1CCOCC1 (stereo not drawn) [Xamoterol] | > 50
OC[C@H]1O[C@@H]2O[C@H]3[C@H](O)[C@@H](O)[C@@H](O[C@H]4[C@H](O)[C@@H](O)[C@@H](O[C@H]5[C@H](O)[C@@H](O)[C@@H](O[C@H]6[C@H](O)[C@@H](O)[C@@H](O[C@H]7[C@H](O)[C@@H](O)[C@@H](O[C@H]8[C@H](O)[C@@H](O)[C@@H](O[C@H]1[C@H](O)[C@H]2O)O[C@@H]8CO)O[C@@H]7CO)O[C@@H]6CO)O[C@@H]5CO)O[C@@H]4CO)O[C@@H]3CO [beta-Cyclodextrin] | > 90
O=C(O)Cc1ccc(-c2ccccc2)cc1 [Felbinac] | > 20
CCN(CC)CCCC(C)Nc1c2ccc(Cl)cc2nc2ccc(OC)cc12 (stereo not drawn) [Quinacrine dihydrochloride dihydrate] | > 50
Clc1cccc(Cl)c1Cl [1,2,3-Trichlorobenzene] | > 90
OCC(CO)n1cnc(-c2ccc(F)cc2)c1-c1ccnc(Oc2ccccc2)n1 [SB281832] | > 90
O=C(O)CCCCC(=O)O [Hexanedioic acid] | > 90
Brc1ccccc1-c1ccccc1 [2-Bromobiphenyl] | > 90
COc1cc(O)c(C(=O)c2ccccc2)cc1S(=O)(=O)O [Sulisobenzone] | > 90
C[N+](C)(C)CCOP(=O)(O)OP(=O)([O-])OC[C@H]1O[C@@H](n2ccc(N)nc2=O)[C@H](O)[C@@H]1O [Citicoline sodium] | > 50
CN/C(=C\[N+](=O)[O-])NCCSCc1ccc(CN(C)C)o1 [Ranitidine] | > 90

Structure (SMILES) | CC50 at 24 h [µM]
N#[N+]c1ccc2c(S(=O)(=O)[O-])cccc2c1O [1-Naphthalenesulfonic acid, 6-diazo-5,6-dihydro-5-oxo, sodium salt] | > 90
O=c1[nH][nH]c(=O)c2cc([N+](=O)[O-])ccc12 [6-Nitrophthalhydrazide] | > 90
c1ccc2c(c1)c1cccc3ccc4cccc2c4c31 [Benzo(e)pyrene] | > 90
Oc1cccc2cc3cccc(O)c3c(O)c12 [1,8,9-Trihydroxyanthracene] | > 90
CCCCCCCCOC(=O)c1cc(O)c(O)c(O)c1 [Octyl gallate] | 2.6
CC1CCc2cc(F)cc3c(=O)c(C(=O)O)cn1c23 (stereo not drawn) [Flumequine] | > 50
O=C=NC1CCC(CC2CCC(N=C=O)CC2)CC1 (stereo not drawn) [1,1-Methylenebis(4-isocyanatocyclohexane)] | > 90
CC(C)CCOC(=O)/C=C/c1ccccc1 [3-Methylbutyl cinnamate] | > 90
CC1=C(C)S(=O)(=O)CCS1(=O)=O [Dimethipin] | > 90
COc1ccc(CNCC(O)COc2ccc3[nH]c(=O)ccc3c2)cc1OC (stereo not drawn) [Toborinone] | > 50
Cc1cn([C@H]2C[C@H](N=[N+]=[N-])[C@@H](CO)O2)c(=O)[nH]c1=O [3'-Azido-3'-deoxythymidine] | > 90
CCO[Si](CC(C)C)(OCC)OCC [Triethoxy(2-methylpropyl)silane] | > 90
O=C(O)C1(c2ccc3c(c2)OC[C@H](Cc2ccc(-c4ccccc4)cc2)[C@H]3O)CCCC1 [CP-105696] | 50.9
CCCCCCCCCCCCCCN(C)C [N,N-Dimethyltetradecylamine] | > 20
Cc1ccc2c(c1[N+](=O)[O-])C(=O)c1ccccc1C2=O [2-Methyl-1-nitroanthraquinone] | 38.7
O=C(NC(=O)c1c(F)cccc1F)Nc1cc(Cl)c(Oc2ncc(C(F)(F)F)cc2Cl)c(Cl)c1 [Chlorfluazuron] | 71.4
CC1(C)CC/C(=C\c2ccc(Cl)cc2)C1(O)Cn1cncn1 (stereo not drawn) [Triticonazole] | > 90
CCN1CCCC1CNC(=O)c1cc(S(=O)(=O)CC)c(N)cc1OC (stereo not drawn) [Amisulpride] | > 50
CC(=O)Nc1ccc(OC(C)=O)cc1 [Diacetamate] | > 50
O=c1oc2ccccc2c(O)c1C1CCCc2ccccc21 (stereo not drawn) [Coumatetralyl] | > 90
OCC(O)c1ccccc1 (stereo not drawn) [Styrene glycol] | > 90
O=C1CCc2cc(OCCCCc3nnnn3C3CCCCC3)ccc2N1 [Cilostazol] | > 50
CC(C)NCC1CCc2cc(CO)c([N+](=O)[O-])cc2N1 (stereo not drawn) [Oxamniquine] | > 20

Same assay, conditions: rat, gh3-tre-luc cells, AC50 (uM) modified / 1000, Tox21_110001=Tox21_113018; viability, 1 nM T3 present, 24 h

Structure (SMILES) | CC50 at 24 h [µM]
C[C@H]1CNCCc2ccc(Cl)cc21 [Lorcaserin] | > 50

Same assay, conditions: rat, gh3-tre-luc cells, AC50 (uM) modified / 1000, Tox21_110001=Tox21_200172; viability, 1 nM T3 present, 24 h

Structure (SMILES) | CC50 at 24 h [µM]
C=CCc1cc(OC)c2c(c1)OCO2 [Myristicin] | > 100

Same assay, conditions: rat, gh3-tre-luc cells, AC50 (uM) modified / 1000, Tox21_110001=Tox21_200325; viability, 1 nM T3 present, 24 h

Structure (SMILES) | CC50 at 24 h [µM]
O=C(O)c1cccc(Cl)c1 [3-Chlorobenzoic acid] | > 90

Same assay, conditions: rat, gh3-tre-luc cells, AC50 (uM) modified / 1000, Tox21_110001=Tox21_201354; viability, 1 nM T3 present, 24 h

Structure (SMILES) | CC50 at 24 h [µM]
C=C(C)C#N [Methacrylonitrile] | > 100

Same assay, conditions: rat, gh3-tre-luc cells, AC50 (uM) modified / 1000, Tox21_110001=Tox21_202607; viability, 1 nM T3 present, 24 h

Structure (SMILES) | CC50 at 24 h [µM]
BrCC1CO1 (stereo not drawn) [Epibromohydrin] | > 90

Same assay, conditions: rat, gh3-tre-luc cells, AC50 (uM) modified / 1000, Tox21_110001=Tox21_202980; viability, 1 nM T3 present, 24 h

Structure (SMILES) | CC50 at 24 h [µM]
CC(C)(C)c1ccccc1OP(=O)(Oc1ccccc1)Oc1ccccc1 [tert-Butylphenyl diphenyl phosphate] | > 90

Same assay, conditions: rat, gh3-tre-luc cells, AC50 (uM) modified / 1000, Tox21_110001=Tox21_301914; viability, 1 nM T3 present, 24 h

Structure (SMILES) | CC50 at 24 h [µM]
CC(C)OC(=O)C(O)(c1ccc(Cl)cc1)c1ccc(Cl)cc1 [Chloropropylate] | 74.2

Same assay, conditions: rat, gh3-tre-luc cells, AC50 (uM) modified / 1000, Tox21_110001=Tox21_303172; viability, 1 nM T3 present, 24 h

Structure (SMILES) | CC50 at 24 h [µM]
C=C(C)C#N [Methacrylonitrile] | > 90

— article PMC6792352, “Limited Chemical Structural Diversity Found to Modulate Thyroid Hormone Receptor in the Tox21 Chemical Library” (Environmental Health Perspectives, 2019)
